Test results taken from US20250281498A1, “FUSED AMINO PYRIMIDINE COMPOUNDS FOR TREATMENT OF SYNUCLEINOPATHIES AND TDP-43 PROTEINOPATHIES” (Ovid Therapeutics Inc., priority 2024, published 2025).

Key:
KCC4 = target: T1, KCC4 (Homo sapiens, UniProt Q9Y666); assay: TI+ flux assay, HEK-293 cells expressing KCC4; assay type: cell-based; conditions: read-out: concentration at which effects on KCC4 were seen (EC50 chart FIG. 1G)
T1 construct: expressed in transfected cells; host or cells: HEK-293
T1 sequence (Q9Y666 1-1083): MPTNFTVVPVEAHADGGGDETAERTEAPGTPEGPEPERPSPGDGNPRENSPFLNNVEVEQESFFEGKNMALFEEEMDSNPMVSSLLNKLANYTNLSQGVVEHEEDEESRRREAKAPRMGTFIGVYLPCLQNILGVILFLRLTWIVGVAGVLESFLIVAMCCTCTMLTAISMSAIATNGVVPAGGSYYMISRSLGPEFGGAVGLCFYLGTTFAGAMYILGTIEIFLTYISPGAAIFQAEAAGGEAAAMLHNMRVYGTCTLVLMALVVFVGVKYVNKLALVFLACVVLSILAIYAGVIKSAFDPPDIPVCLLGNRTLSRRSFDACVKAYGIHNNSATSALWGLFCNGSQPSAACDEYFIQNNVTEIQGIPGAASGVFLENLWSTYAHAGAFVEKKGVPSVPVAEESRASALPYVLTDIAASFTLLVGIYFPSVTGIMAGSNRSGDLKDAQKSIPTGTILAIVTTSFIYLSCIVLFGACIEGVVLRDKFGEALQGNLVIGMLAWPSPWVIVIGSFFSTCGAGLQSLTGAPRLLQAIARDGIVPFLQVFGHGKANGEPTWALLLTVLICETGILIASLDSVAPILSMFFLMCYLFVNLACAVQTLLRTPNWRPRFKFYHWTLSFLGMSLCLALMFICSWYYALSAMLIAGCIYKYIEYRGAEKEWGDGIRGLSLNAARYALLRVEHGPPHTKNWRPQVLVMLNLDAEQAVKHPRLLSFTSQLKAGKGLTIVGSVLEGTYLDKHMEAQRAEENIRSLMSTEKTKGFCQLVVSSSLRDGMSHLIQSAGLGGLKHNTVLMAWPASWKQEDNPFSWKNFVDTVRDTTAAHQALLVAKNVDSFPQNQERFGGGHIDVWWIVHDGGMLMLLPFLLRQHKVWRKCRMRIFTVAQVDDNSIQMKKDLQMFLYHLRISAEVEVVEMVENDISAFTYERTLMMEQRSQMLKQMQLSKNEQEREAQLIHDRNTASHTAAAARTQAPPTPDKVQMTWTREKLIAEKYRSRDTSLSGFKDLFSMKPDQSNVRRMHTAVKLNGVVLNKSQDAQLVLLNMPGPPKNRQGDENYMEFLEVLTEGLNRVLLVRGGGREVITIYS
Experimental: (§1) FLIPR TI Flux assay. HEK-293 cells were washed with HBSS, and then incubated with loading buffer containing TI sensitive fluorescent dye (https://www.moleculardevices.com), 20 μM bumetanide 20 μM ouabain and 2.5 mM probenecid for 1 h at room temperature (RT) under control conditions or with drugs in the dark using a FlexStation 3 microplate reader (Molecular Devices) and imaged […] for 30 min. Stimulus buffer was added containing 5 mM K^+/0.5 mM Tl^+ and cells were imaged every 1.5 over a 190 second time course The initial rate Tl^+ uptake (Relative Fluorescence Units (RFU) per second) was determined following addition of the stimulus buffer as outlined previously (Conway et al., 2017, supra) (Lee et al., 2022, supra).
(§2) Several studies have shown that the activity and plasma membrane accumulation of KCC2 is potentiated via phosphorylation of S940, a process mediated by the activity of protein kinase C and protein phosphatase 1 (Lee et al., 2011, supra; Lee et al., J Biol Chem 282, 29777-29784 (2007); Moore et al., Proc. Natl. Acad. Sci. U.S.A. 115, 10166-10171 (2018); Moore et al., Trends Neurosci. 40, 555-571 (2017); Silayeva et al., Proc. Natl. Acad. Sci. U.S.A. 112, 3523-3528 (2015)). […] Compared to KCC2, effects on KCC3, KCC4, and NKCC1 were only seen at concentrations more than 35-fold that of KCC2 (>100 μM) (FIG. 1G).

KCC3 = target: T2, KCC3 (Homo sapiens, UniProt Q9UHW9); assay: TI+ flux assay, HEK-293 cells expressing KCC3; assay type: cell-based; conditions: read-out: concentration at which effects on KCC3 were seen (EC50 chart FIG. 1G)
T2 construct: expressed in transfected cells; host or cells: HEK-293
T2 sequence (Q9UHW9 1-1150): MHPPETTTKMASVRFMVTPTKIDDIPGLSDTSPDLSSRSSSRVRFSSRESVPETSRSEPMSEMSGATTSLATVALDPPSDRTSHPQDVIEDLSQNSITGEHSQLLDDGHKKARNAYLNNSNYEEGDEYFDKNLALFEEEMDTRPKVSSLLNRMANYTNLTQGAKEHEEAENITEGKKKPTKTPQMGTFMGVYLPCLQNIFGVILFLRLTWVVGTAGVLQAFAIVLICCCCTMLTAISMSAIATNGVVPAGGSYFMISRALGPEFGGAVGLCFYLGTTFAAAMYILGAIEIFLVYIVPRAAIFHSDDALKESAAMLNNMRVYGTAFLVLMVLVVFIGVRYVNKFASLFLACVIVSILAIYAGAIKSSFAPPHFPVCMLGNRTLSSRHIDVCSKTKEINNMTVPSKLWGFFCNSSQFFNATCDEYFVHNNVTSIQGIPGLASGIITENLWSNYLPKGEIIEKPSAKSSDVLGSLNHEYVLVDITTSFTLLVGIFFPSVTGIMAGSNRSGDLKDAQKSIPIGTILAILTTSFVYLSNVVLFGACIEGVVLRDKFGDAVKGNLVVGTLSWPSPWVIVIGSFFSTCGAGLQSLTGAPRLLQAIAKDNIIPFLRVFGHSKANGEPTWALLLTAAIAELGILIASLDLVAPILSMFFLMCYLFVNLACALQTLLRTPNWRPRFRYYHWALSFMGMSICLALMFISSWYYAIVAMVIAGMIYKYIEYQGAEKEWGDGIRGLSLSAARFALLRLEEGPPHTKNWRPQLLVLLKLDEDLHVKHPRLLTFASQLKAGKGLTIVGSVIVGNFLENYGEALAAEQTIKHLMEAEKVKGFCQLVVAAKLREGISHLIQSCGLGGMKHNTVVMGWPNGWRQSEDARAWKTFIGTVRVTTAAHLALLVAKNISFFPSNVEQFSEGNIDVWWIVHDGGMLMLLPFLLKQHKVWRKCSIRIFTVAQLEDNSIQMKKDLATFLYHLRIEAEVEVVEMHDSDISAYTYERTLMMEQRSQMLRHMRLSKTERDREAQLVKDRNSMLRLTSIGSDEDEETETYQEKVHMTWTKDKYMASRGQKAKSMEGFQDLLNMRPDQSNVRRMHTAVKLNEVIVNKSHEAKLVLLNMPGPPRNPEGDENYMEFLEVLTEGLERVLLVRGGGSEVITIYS
Experimental: as §1, §2

## C[C@@H]1CN(c2nc3c(c(Nc4ccc(C5CCCCC5)cc4)n2)COC3)CCO1 [Compound A, (R)—N-(4-cyclohexylphenyl)-2-(2-methylmorpholino)-5,7-dihydrofuro[3,4-d]pyrimidin-4-amine]
KCC4
  EC50: > 100 µM
KCC3
  EC50: > 100 µM
